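Interpolation was linear, between the two tested concentrations surrounding the appropriate level; five concentrations were tested over 48 hours in 96-well plates. TGI is the concentration that stops growth completely.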

The subject of one experiment is SN12C renal. Kind of experiment: inhibition of tumour cell growth, NCI panel, 48 h.
As to `C=CCC(CCC(C)=O)(C(=O)OCC)C(=O)OCC`, the TGI was more than 100 µM.
For the compound `COC(=O)[C@H](Cc1ccccc1)NC(=O)c1ccc(CNC(=O)/C=C/c2csc(-c3ccccc3)n2)cc1`, the TGI was determined as 46.2 µM.
`N#Cc1ccccc1OCCOc1ccccc1C#N` registered a TGI of more than 100 µM.
In turn, `CCN(/C=C1/C(=O)C(c2ccccc2)N(c2ccccc2)C1=O)CC` (stereo unspecified) gave a TGI of more than 10 µM.
The compound `COc1ccc2nc3c(c(N)c2c1)C1CCC3C1(C)C` (stereo unspecified) had a TGI of more than 100 µM.
The same measure, in the same setting: as for `O=c1cc(Nc2cccc(O)c2)[nH]c(=O)[nH]1`, the figure is more than 100 µM; as for `O=C(Nn1c(-c2ccccc2)nc2ccccc2c1=O)c1ccc(Cl)cc1`, more than 100 µM; as for `CC(=O)c1ccc(N=NN2CCCC2)cc1`, more than 100 µM.
On the same count and under the same terms, next, `CSc1nncc(-c2cc3c(c(SC)n2)CCCC3)n1`: more than 100 µM; `Cc1nc2sc3cccc(Cl)c3n2c(=O)c1N=Nc1ccc(Cl)cc1`: more than 100 µM; `Cc1cc(N(CCC#N)CCC#N)ccc1/C(N=Nc1ccccc1)=N\NC(=O)c1cc(Cl)ccc1O`: more than 100 µM.
As to `COC(=O)[C@@H]1CO[C@H](C(C)(C)C)N1C(=O)N1C=CC(=O)C[C@H]1C`, the TGI is more than 100 µM.
On the same count and under the same terms, next, `NCCOc1cccc(C2(N3CCCCC3)CCCCC2)c1`: more than 100 µM; `Cc1ccc(N=N/C(=N/NC(=O)c2ccccc2)c2ccc(N(CCC#N)CCC#N)cc2C)cc1`: more than 100 µM; `NC1=NC2(COC(c3ccccc3)(c3ccccc3)c3ccccc3)OC(COC(c3ccccc3)(c3ccccc3)c3ccccc3)C(O)C2O1` (stereo unspecified): more than 100 µM.
The compound `CCCCCCCCCCCCCCCCCCNc1ccn(C2OC(COP(=O)(O)OCC3OC(n4ccc(N)nc4=O)C(O)C3O)C(O)C2O)c(=O)n1` (stereo unspecified) registered a TGI of more than 100 µM.
On to `Cc1ccc(S[C@@](C=O)(NC(=O)OCc2ccccc2)C(F)(F)F)cc1`, for which the TGI worked out at 91.7 µM.
The same measure, in the same setting: as for `CCOc1cnc(C(O)(c2ccccc2)c2ccccc2)o1`, the figure is more than 100 µM; as for `CC(=O)c1ccc(Nc2c3c(nc4ccccc24)CCCC3)cc1`, more than 100 µM; as for `O=C1CC(O)c2cscc21` (stereo unspecified), more than 100 µM.
For the compound `CC(C)(C)OC(=O)N(CCCCNC(=O)C(F)(F)F)CCCNC(=O)C(F)(F)F`, the TGI was more than 100 µM.
In turn, `C=C1CC[C@@H](CCC2CCC3(OC2)O[C@]2(O)CC[C@@]3(C)OC2(C)C)C(C)(C)[C@H]1C/C=C1\CCOC1=O` (stereo partly specified) came in with a TGI of 51.1 µM.

In another experiment the test system is SR leukemia. Kind of experiment: inhibition of tumour cell growth, NCI panel, 48 h.
`C=CCC(CCC(C)=O)(C(=O)OCC)C(=O)OCC` had a TGI of more than 100 µM.
The same measure, in the same setting: next, `COC(=O)[C@H](Cc1ccccc1)NC(=O)c1ccc(CNC(=O)/C=C/c2csc(-c3ccccc3)n2)cc1`: more than 21.5 µM; `N#Cc1ccccc1OCCOc1ccccc1C#N`: more than 100 µM; `CCN(/C=C1/C(=O)C(c2ccccc2)N(c2ccccc2)C1=O)CC` (stereo unspecified): more than 10 µM.
As to `COc1ccc2nc3c(c(N)c2c1)C1CCC3C1(C)C` (stereo unspecified), the TGI was more than 100 µM.
For the compound `O=c1cc(Nc2cccc(O)c2)[nH]c(=O)[nH]1`, the TGI is more than 100 µM.
`O=C(Nn1c(-c2ccccc2)nc2ccccc2c1=O)c1ccc(Cl)cc1`: the TGI was more than 100 µM.
For the compound `CC(=O)c1ccc(N=NN2CCCC2)cc1`, the TGI is more than 100 µM.
The same measure, in the same setting: as for `CSc1nncc(-c2cc3c(c(SC)n2)CCCC3)n1`, the figure is more than 100 µM; as for `Cc1nc2sc3cccc(Cl)c3n2c(=O)c1N=Nc1ccc(Cl)cc1`, more than 100 µM.
Compound `Cc1cc(N(CCC#N)CCC#N)ccc1/C(N=Nc1ccccc1)=N\NC(=O)c1cc(Cl)ccc1O` gave a TGI of 79.5 µM.
The same measure, in the same setting: as for `COC(=O)[C@@H]1CO[C@H](C(C)(C)C)N1C(=O)N1C=CC(=O)C[C@H]1C`, the figure is more than 100 µM; as for `NCCOc1cccc(C2(N3CCCCC3)CCCCC2)c1`, 34.8 µM; as for `Cc1ccc(N=N/C(=N/NC(=O)c2ccccc2)c2ccc(N(CCC#N)CCC#N)cc2C)cc1`, more than 100 µM.
On the same count and under the same terms, next, `NC1=NC2(COC(c3ccccc3)(c3ccccc3)c3ccccc3)OC(COC(c3ccccc3)(c3ccccc3)c3ccccc3)C(O)C2O1` (stereo unspecified): more than 100 µM; `CCCCCCCCCCCCCCCCCCNc1ccn(C2OC(COP(=O)(O)OCC3OC(n4ccc(N)nc4=O)C(O)C3O)C(O)C2O)c(=O)n1` (stereo unspecified): more than 100 µM.
Same read-out and setting: as for `Cc1ccc(S[C@@](C=O)(NC(=O)OCc2ccccc2)C(F)(F)F)cc1`, the figure is 44.4 µM; as for `CCOc1cnc(C(O)(c2ccccc2)c2ccccc2)o1`, more than 100 µM; as for `CC(=O)c1ccc(Nc2c3c(nc4ccccc24)CCCC3)cc1`, 74.2 µM.
Consider `O=C1CC(O)c2cscc21` (stereo unspecified), for which the TGI was more than 100 µM.
The same measure, in the same setting: next, `CC(C)(C)OC(=O)N(CCCCNC(=O)C(F)(F)F)CCCNC(=O)C(F)(F)F`: more than 100 µM; `C=C1CC[C@@H](CCC2CCC3(OC2)O[C@]2(O)CC[C@@]3(C)OC2(C)C)C(C)(C)[C@H]1C/C=C1\CCOC1=O` (stereo partly specified): more than 52.2 µM; `C=CCON(C(=O)OC(C)(C)C)C(C)(C)C`: more than 100 µM.

For the next experiment, the system named is COLO 205 colon. Kind of experiment: inhibition of tumour cell growth, NCI panel, 48 h.
Take `C=CCC(CCC(C)=O)(C(=O)OCC)C(=O)OCC`: the TGI was more than 100 µM.
On the same count and under the same terms, as for `COC(=O)[C@H](Cc1ccccc1)NC(=O)c1ccc(CNC(=O)/C=C/c2csc(-c3ccccc3)n2)cc1`, the figure is more than 83.2 µM.
Still for that read-out and setting: next, `N#Cc1ccccc1OCCOc1ccccc1C#N`: more than 100 µM; `CCN(/C=C1/C(=O)C(c2ccccc2)N(c2ccccc2)C1=O)CC` (stereo unspecified): more than 10 µM.
Regarding `COc1ccc2nc3c(c(N)c2c1)C1CCC3C1(C)C` (stereo unspecified), the TGI amounted to 36.2 µM.
Same read-out and setting: as for `O=c1cc(Nc2cccc(O)c2)[nH]c(=O)[nH]1`, the figure is more than 100 µM; as for `CC(=O)c1ccc(N=NN2CCCC2)cc1`, more than 100 µM; as for `CSc1nncc(-c2cc3c(c(SC)n2)CCCC3)n1`, more than 100 µM.
Same read-out and setting: next, `Cc1nc2sc3cccc(Cl)c3n2c(=O)c1N=Nc1ccc(Cl)cc1`: more than 100 µM.
Same read-out and setting: next, `Cc1cc(N(CCC#N)CCC#N)ccc1/C(N=Nc1ccccc1)=N\NC(=O)c1cc(Cl)ccc1O`: 39.1 µM.
Take `COC(=O)[C@@H]1CO[C@H](C(C)(C)C)N1C(=O)N1C=CC(=O)C[C@H]1C`: the TGI is more than 100 µM.
`NCCOc1cccc(C2(N3CCCCC3)CCCCC2)c1` displayed a TGI of 26 µM.
The same measure, in the same setting: as for `Cc1ccc(N=N/C(=N/NC(=O)c2ccccc2)c2ccc(N(CCC#N)CCC#N)cc2C)cc1`, the figure is more than 100 µM; as for `NC1=NC2(COC(c3ccccc3)(c3ccccc3)c3ccccc3)OC(COC(c3ccccc3)(c3ccccc3)c3ccccc3)C(O)C2O1` (stereo unspecified), more than 100 µM; as for `CCCCCCCCCCCCCCCCCCNc1ccn(C2OC(COP(=O)(O)OCC3OC(n4ccc(N)nc4=O)C(O)C3O)C(O)C2O)c(=O)n1` (stereo unspecified), more than 100 µM.
`Cc1ccc(S[C@@](C=O)(NC(=O)OCc2ccccc2)C(F)(F)F)cc1` gave a TGI of 35.5 µM.
The compound `CCOc1cnc(C(O)(c2ccccc2)c2ccccc2)o1` returned a TGI of more than 100 µM.
For `CC(=O)c1ccc(Nc2c3c(nc4ccccc24)CCCC3)cc1`, the TGI is more than 51.1 µM.
In the case of `O=C1CC(O)c2cscc21` (stereo unspecified), the TGI was more than 100 µM.
On the same count and under the same terms, as for `CC(C)(C)OC(=O)N(CCCCNC(=O)C(F)(F)F)CCCNC(=O)C(F)(F)F`, the figure is more than 100 µM; as for `C=C1CC[C@@H](CCC2CCC3(OC2)O[C@]2(O)CC[C@@]3(C)OC2(C)C)C(C)(C)[C@H]1C/C=C1\CCOC1=O` (stereo partly specified), 35.3 µM.

The record behind these values is PubChem BioAssay (NCI).
